# Key:
# Test in all cases: relative viability (nuclei count vs DMSO), 5 days (fraction); higher = more cells survive
# CUDC-101 + Dasatinib = compound: C#Cc1cccc(Nc2ncnc3cc(OC)c(OCCCCCCC(=O)NO)cc23)c1 [CUDC-101] + Cc1nc(Nc2ncc(C(=O)Nc3c(C)cccc3Cl)s2)cc(N2CCN(CCO)CC2)n1 [Dasatinib] (partner 0.075 µM)
# Procedure, shortened: (§1)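 A single step with final 0.05% Triton X-100, 1% formaldehyde and 1 ug/ml Hoechst fixed the cells and stained nuclei 5 days after treatment. Lung cancer cell lines in 1536-well plates had been treated by pin tool the day after seeding with one drug alone or a fixed anchor-drug dose plus five library-drug doses (not always all listed) in √10 steps, and nuclei were counted on 4× images. Relative viability is the ratio of nuclei in treated wells to nuclei in vehicle wells, taken as the median of duplicate plates.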
# CUDC-101 + Vorinostat = compound: C#Cc1cccc(Nc2ncnc3cc(OC)c(OCCCCCCC(=O)NO)cc23)c1 [CUDC-101] + O=C(CCCCCCC(=O)Nc1ccccc1)NO [Vorinostat] (partner 1 µM)
# Procedure, shortened: as §1
# [1] = compound: C1=CC=C2C(=C1)N=C(S2)C(C#N)C3=NC(=NC=C3)NCCC4=CN=CC=C4 + CS(=O)(=O)CCNCc1ccc(-c2ccc3ncnc(Nc4ccc(OCc5cccc(F)c5)c(Cl)c4)c3c2)o1 [Lapatinib] (partner 2 µM)
# Procedure, shortened: as §1
# [2] = compound: C1=CC=C2C(=C1)N=C(S2)C(C#N)C3=NC(=NC=C3)NCCC4=CN=CC=C4 + Nc1ncn([C@H]2C[C@H](O)[C@@H](CO)O2)c(=O)n1 [Decitabine] (partner 2 µM)
# Procedure, shortened: as §1
cell line,measurement,setting,value
NCI-H647,relative viability,CUDC-101 + Dasatinib; first compound 0.01 µM,0.255
same,relative viability,CUDC-101 + Dasatinib; first compound 0.03162 µM,0.198
same,relative viability,CUDC-101 + Dasatinib; first compound 0.1 µM,0.23
same,relative viability,CUDC-101 + Dasatinib; first compound 0.3162 µM,0.224
same,relative viability,CUDC-101 + Dasatinib; first compound 1 µM,0.136
same,relative viability,CUDC-101 + Vorinostat; first compound 0.01 µM,0.479
same,relative viability,CUDC-101 + Vorinostat; first compound 0.03162 µM,0.465
same,relative viability,CUDC-101 + Vorinostat; first compound 0.1 µM,0.664
same,relative viability,CUDC-101 + Vorinostat; first compound 0.3162 µM,0.427
same,relative viability,CUDC-101 + Vorinostat; first compound 1 µM,0.262
same,relative viability,[1]; first compound 0.01581 µM,1.34
same,relative viability,[1]; first compound 0.05 µM,1.11
same,relative viability,[1]; first compound 0.1581 µM,1.3
same,relative viability,[1]; first compound 0.5 µM,0.546
same,relative viability,[2]; first compound 0.005 µM,0.356
same,relative viability,[2]; first compound 0.01581 µM,0.442
same,relative viability,[2]; first compound 0.05 µM,0.33
same,relative viability,[2]; first compound 0.1581 µM,0.353
same,relative viability,[2]; first compound 0.5 µM,0.284
HCC-78,relative viability,CUDC-101 + Dasatinib; first compound 0.01 µM,0.401
same,relative viability,CUDC-101 + Dasatinib; first compound 0.03162 µM,0.293
same,relative viability,CUDC-101 + Dasatinib; first compound 0.1 µM,0.373
same,relative viability,CUDC-101 + Dasatinib; first compound 0.3162 µM,0.28
same,relative viability,CUDC-101 + Dasatinib; first compound 1 µM,0.213
same,relative viability,CUDC-101 + Vorinostat; first compound 0.01 µM,0.441
same,relative viability,CUDC-101 + Vorinostat; first compound 0.03162 µM,0.413
same,relative viability,CUDC-101 + Vorinostat; first compound 0.1 µM,0.46
same,relative viability,CUDC-101 + Vorinostat; first compound 0.3162 µM,0.377
same,relative viability,CUDC-101 + Vorinostat; first compound 1 µM,0.259
same,relative viability,[1]; first compound 0.005 µM,1.07
same,relative viability,[1]; first compound 0.01581 µM,0.664
same,relative viability,[1]; first compound 0.05 µM,0.57
same,relative viability,[1]; first compound 0.1581 µM,1.01
same,relative viability,[1]; first compound 0.5 µM,0.896
same,relative viability,[2]; first compound 0.005 µM,0.776
same,relative viability,[2]; first compound 0.01581 µM,0.779
same,relative viability,[2]; first compound 0.05 µM,0.634
same,relative viability,[2]; first compound 0.1581 µM,0.825
same,relative viability,[2]; first compound 0.5 µM,0.747
NCI-H727,relative viability,CUDC-101 + Dasatinib; first compound 0.01 µM,0.298
same,relative viability,CUDC-101 + Dasatinib; first compound 0.03162 µM,0.422
same,relative viability,CUDC-101 + Dasatinib; first compound 0.1 µM,0.359
same,relative viability,CUDC-101 + Dasatinib; first compound 0.3162 µM,0.375
same,relative viability,CUDC-101 + Dasatinib; first compound 1 µM,0.311
same,relative viability,CUDC-101 + Vorinostat; first compound 0.01 µM,1.28
same,relative viability,CUDC-101 + Vorinostat; first compound 0.03162 µM,1.15
same,relative viability,CUDC-101 + Vorinostat; first compound 0.1 µM,0.958
same,relative viability,CUDC-101 + Vorinostat; first compound 0.3162 µM,1.04
same,relative viability,CUDC-101 + Vorinostat; first compound 1 µM,0.642
same,relative viability,[1]; first compound 0.005 µM,0.857
same,relative viability,[1]; first compound 0.01581 µM,0.821
same,relative viability,[1]; first compound 0.05 µM,0.813
same,relative viability,[1]; first compound 0.1581 µM,0.83
same,relative viability,[1]; first compound 0.5 µM,0.795
same,relative viability,[2]; first compound 0.005 µM,0.992
same,relative viability,[2]; first compound 0.01581 µM,0.879
same,relative viability,[2]; first compound 0.05 µM,0.983
same,relative viability,[2]; first compound 0.1581 µM,1
same,relative viability,[2]; first compound 0.5 µM,0.786
BEN,relative viability,CUDC-101 + Dasatinib; first compound 0.01 µM,0.426
same,relative viability,CUDC-101 + Dasatinib; first compound 0.03162 µM,0.301
same,relative viability,CUDC-101 + Dasatinib; first compound 0.1 µM,0.346
same,relative viability,CUDC-101 + Dasatinib; first compound 0.3162 µM,0.311
same,relative viability,CUDC-101 + Dasatinib; first compound 1 µM,0.264
same,relative viability,CUDC-101 + Vorinostat; first compound 0.01 µM,0.656
same,relative viability,CUDC-101 + Vorinostat; first compound 0.03162 µM,0.557
same,relative viability,CUDC-101 + Vorinostat; first compound 0.1 µM,0.573
same,relative viability,CUDC-101 + Vorinostat; first compound 0.3162 µM,0.538
same,relative viability,CUDC-101 + Vorinostat; first compound 1 µM,0.386
same,relative viability,[1]; first compound 0.005 µM,0.561
same,relative viability,[1]; first compound 0.01581 µM,0.689
same,relative viability,[1]; first compound 0.05 µM,0.62
same,relative viability,[1]; first compound 0.1581 µM,0.792
same,relative viability,[1]; first compound 0.5 µM,0.826
same,relative viability,[2]; first compound 0.005 µM,0.654
same,relative viability,[2]; first compound 0.01581 µM,0.666
same,relative viability,[2]; first compound 0.05 µM,0.664
same,relative viability,[2]; first compound 0.1581 µM,0.863
same,relative viability,[2]; first compound 0.5 µM,0.811
NCI-H650,relative viability,CUDC-101 + Dasatinib; first compound 0.01 µM,0.486
same,relative viability,CUDC-101 + Dasatinib; first compound 0.03162 µM,0.482
same,relative viability,CUDC-101 + Dasatinib; first compound 0.1 µM,0.495
same,relative viability,CUDC-101 + Dasatinib; first compound 0.3162 µM,0.436
same,relative viability,CUDC-101 + Dasatinib; first compound 1 µM,0.337
same,relative viability,CUDC-101 + Vorinostat; first compound 0.01 µM,0.547
same,relative viability,CUDC-101 + Vorinostat; first compound 0.03162 µM,0.517
same,relative viability,CUDC-101 + Vorinostat; first compound 0.1 µM,0.414
same,relative viability,CUDC-101 + Vorinostat; first compound 0.3162 µM,0.456
same,relative viability,CUDC-101 + Vorinostat; first compound 1 µM,0.51
same,relative viability,[1]; first compound 0.005 µM,0.665
same,relative viability,[1]; first compound 0.01581 µM,0.625
same,relative viability,[1]; first compound 0.05 µM,0.994
same,relative viability,[1]; first compound 0.1581 µM,1.45
same,relative viability,[1]; first compound 0.5 µM,0.718
same,relative viability,[2]; first compound 0.005 µM,0.316
same,relative viability,[2]; first compound 0.01581 µM,0.356
same,relative viability,[2]; first compound 0.05 µM,0.319
same,relative viability,[2]; first compound 0.1581 µM,0.338
same,relative viability,[2]; first compound 0.5 µM,0.325
NCI-H1793,relative viability,CUDC-101 + Dasatinib; first compound 0.01 µM,0.393
same,relative viability,CUDC-101 + Dasatinib; first compound 0.03162 µM,0.371
same,relative viability,CUDC-101 + Dasatinib; first compound 0.1 µM,0.342
same,relative viability,CUDC-101 + Dasatinib; first compound 0.3162 µM,0.415
same,relative viability,CUDC-101 + Dasatinib; first compound 1 µM,0.371
same,relative viability,CUDC-101 + Vorinostat; first compound 0.01 µM,0.858
same,relative viability,CUDC-101 + Vorinostat; first compound 0.03162 µM,0.774
same,relative viability,CUDC-101 + Vorinostat; first compound 0.1 µM,0.558
same,relative viability,CUDC-101 + Vorinostat; first compound 0.3162 µM,0.675
same,relative viability,CUDC-101 + Vorinostat; first compound 1 µM,0.331
same,relative viability,[1]; first compound 0.005 µM,0.748
same,relative viability,[1]; first compound 0.01581 µM,0.647
same,relative viability,[1]; first compound 0.05 µM,0.668
same,relative viability,[1]; first compound 0.1581 µM,0.828
same,relative viability,[1]; first compound 0.5 µM,0.792
same,relative viability,[2]; first compound 0.01581 µM,0.521
same,relative viability,[2]; first compound 0.05 µM,0.424
same,relative viability,[2]; first compound 0.1581 µM,0.538
same,relative viability,[2]; first compound 0.5 µM,0.465

# Source: the supplement of paper PMC10307832
